Test results: the supplement of paper PMC4862054

Assays:
Settings in all cases: incubation time: 72 h
MDA-MB-231 [1] = experiment: normalised response (% of control), CellTox Green; higher = less cell death (100 = DMSO, 0 = benzethonium chloride kill control)
In short: (§1)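 After 72 h with compound in 384-well plates, breast cancer cell lines seeded as 20 µl suspension were read for CellTox Green fluorescence at 485/520 nm. CellTiter-Glo luminescence was then read after 10 min at room temperature. Compound was present at 5 concentrations in 10-fold steps over a 10,000-fold range set per compound, and plates were normalised to 0.1 % DMSO (100) and a positive kill control (0). Values are normalised signals, each at a single concentration.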

CAL-51 [2] = experiment: as above
In short: as §1

CAL-120 [3] = experiment: as above
In short: as §1

DU-4475 [4] = experiment: as above
In short: as §1

Hs578T [5] = experiment: as above
In short: as §1

HCC1599 [6] = experiment: as above
In short: as §1

MCF-10A [7] = experiment: as above
In short: as §1

MDA-MB-468 [8] = experiment: as above
In short: as §1

CAL-148 [9] = experiment: as above
In short: as §1

CAL-85-1 [10] = experiment: as above
In short: as §1

MDA-MB-436 [11] = experiment: as above
In short: as §1

HCC1937 [12] = experiment: as above
In short: as §1

MDA-MB-453 [13] = experiment: as above
In short: as §1

BT-549 [14] = experiment: as above
In short: as §1

MFM-223 [15] = experiment: as above
In short: as §1

HDQ-P1 [16] = experiment: as above
In short: as §1

HCC1143 [17] = experiment: as above
In short: as §1

BT-474 [18] = experiment: as above
In short: as §1

MDA-MB-231 [19] = experiment: normalised response (% of control), CellTiter-Glo; higher = more viable cells (100 = DMSO, 0 = benzethonium chloride kill control)
Experimental: (§2)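 DSRT, 72 h incubation, CellTox Green / CellTiter-Glo readout. Signal is normalised to DMSO and benzethonium chloride controls. Value is the normalised response at the highest dose.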

CAL-51 [20] = experiment: as above
Experimental: as §2

CAL-120 [21] = experiment: as above
Experimental: as §2

DU-4475 [22] = experiment: as above
Experimental: as §2

Hs578T [23] = experiment: as above
Experimental: as §2

HCC1599 [24] = experiment: as above
Experimental: as §2

MCF-10A [25] = experiment: as above
Experimental: as §2

MDA-MB-468 [26] = experiment: as above
Experimental: as §2

SK-BR-3 = experiment: as above
Experimental: as §2

CAL-148 [27] = experiment: as above
Experimental: as §2

CAL-85-1 [28] = experiment: as above
Experimental: as §2

MDA-MB-436 [29] = experiment: as above
Experimental: as §2

HCC1937 [30] = experiment: as above
Experimental: as §2

MDA-MB-453 [31] = experiment: as above
Experimental: as §2

BT-549 [32] = experiment: as above
Experimental: as §2

MFM-223 [33] = experiment: as above
Experimental: as §2

HDQ-P1 [34] = experiment: as above
Experimental: as §2

HCC1143 [35] = experiment: as above
Experimental: as §2

BT-474 [36] = experiment: as above
Experimental: as §2

SMILES	normalised response (MDA-MB-231 [1])	normalised response (CAL-51 [2])	normalised response (CAL-120 [3])	normalised response (DU-4475 [4])	normalised response (Hs578T [5])	normalised response (HCC1599 [6])	normalised response (MCF-10A [7])	normalised response (MDA-MB-468 [8])	normalised response (CAL-148 [9])	normalised response (CAL-85-1 [10])	normalised response (MDA-MB-436 [11])	normalised response (HCC1937 [12])	normalised response (MDA-MB-453 [13])	normalised response (BT-549 [14])	normalised response (MFM-223 [15])	normalised response (HDQ-P1 [16])	normalised response (HCC1143 [17])	normalised response (BT-474 [18])	normalised response (MDA-MB-231 [19])	normalised response (CAL-51 [20])	normalised response (CAL-120 [21])	normalised response (DU-4475 [22])	normalised response (Hs578T [23])	normalised response (HCC1599 [24])	normalised response (MCF-10A [25])	normalised response (MDA-MB-468 [26])	normalised response (SK-BR-3)	normalised response (CAL-148 [27])	normalised response (CAL-85-1 [28])	normalised response (MDA-MB-436 [29])	normalised response (HCC1937 [30])	normalised response (MDA-MB-453 [31])	normalised response (BT-549 [32])	normalised response (MFM-223 [33])	normalised response (HDQ-P1 [34])	normalised response (HCC1143 [35])	normalised response (BT-474 [36])
COc1cc2c(Oc3ccc4[nH]c(C)cc4c3F)ncnc2cc1OCCCN1CCCC1 [Cediranib] (1000 nM)	117%	96.8%	88.1%	103%	127%	112%	91.5%	153%	101%	78.4%	94.6%	114%	105%	97.4%	91.4%	102%	123%	95.7%	105%	128%	90.4%	95.5%	84.7%	92.8%	70.5%	90.8%	106%	110%	100%	100%	91.7%	103%	83.6%	56.6%	80.8%	99.8%	104%
Nc1nc(F)nc2c1ncn2[C@@H]1O[C@H](CO)[C@@H](O)[C@@H]1O [Fludarabine] (10000 nM)	103%	101%	96%	97.6%	93.3%	101%	101%	119%	93%	68.5%	84.9%	91.6%	98.5%	93.6%	–	105%	116%	97.5%	95.2%	125%	86.1%	106%	98.3%	78.9%	114%	105%	99%	87.6%	83.9%	53.2%	86.3%	112%	79.1%	108%	96.3%	69.9%	82.9%
